Data on 2 compounds can be found in US9982026B2, “Compositions and methods for assessing and treating adrenal diseases and disorders” (YALE UNIVERSITY, priority 2011, dated 2018).

In assay [1] the target is KCNJ3/KCNJ5WT cotransfected with the dopamine D2 receptor in 293T cells (Homo sapiens, UniProt P14416). The conditions noted are these: 1 μM dopamine, current amplitudes at −100 mV, before vs after addition, n=4.
Protocol: Representative whole-cell recordings of 293T cells cotransfected with KCNJ3/KCNJ5WT and the dopamine D2 receptor are shown. The pipette holding potential was 0 mV before clamping, and the cell was clamped from −100 to 60 mV with 20 mV increments before (left) and after (right) addition of 1 μM dopamine. The extracellular solution contained 140 mM NaCl, 5 mM KCl, 1.8 mM MgCl2, 1.8 mM CaCl2, and 10 mM HEPES, pH 7.4, while the intracellular solution contained 140 mM KCl, 4 mM MgCl2, 1 mM CaCl2, 1 mM EGTA, and 5 mM HEPES, pH 7.4. […] (FIG. 12B) Mean±SEM of current amplitudes measured at −100 mV before (control) and after addition of dopamine as in FIG. 12A (n=4).
293T cells were transfected with plasmid DNA using TransIT®-293 Transfection Reagent (Mirus) according to the manufacturer's instructions. Empty vector was used as a control. Cells were examined one day after transient transfection. Standard perforated whole-cell patch clamp recordings were performed on GFP-positive cells using an Axopatch 200A (Axon Instruments) amplifier. […]
Cells were cotransfected with 0.8 μg wild-type or mutant KCNJ5 and 0.5 μg KCNJ3 cDNA. […] Endogenous currents of 293T cells transfected with empty vector were measured from −100 to 60 mV. […] Data were analyzed by a combination of Axon Clampfit9.2 (Molecular Devices) and SigmaPlot (Jandel Scientific) programs. Data from 3-7 cells were analyzed for each construct. […]
The subject of assay [2] is KCNJ3 plus mutant KCNJ5 in 293T cells. Kind of assay: Whole-cell patch clamp of KCNJ3/KCNJ5 heterotetramers, Ba2+ block. Format: cell-based, human. The conditions noted are these: 1 mM BaCl2 in extracellular solution; mutant channels G151R, L168R, T158A. On the procedure: (§1) FIG. 3A depicts the results of representative whole-cell recordings of 293T cells transfected with empty vector or KCNJ3 plus WT or mutant KCNJ5. […] Middle row: 1 mM BaCl2 was added. Bottom row: 140 mM choline chloride was substituted for extracellular NaCl. FIG. 3B depicts the current-voltage relationships from cells expressing indicated constructs (n=3 to 7 for each construct). Reversal potentials in control conditions are indicated. […] FIG. 3C depicts that the K+:Na+ permeability ratios calculated from the reversal potentials show loss of ion selectivity of the mutant channels. Data in FIGS. 3B and 3C are shown as mean±SEM.
(§2) Empty vector was used as a control. Cells were examined one day after transient transfection.
(§3) 1 mM BaCl2 was used to block Kir channels. […] All data are shown as mean±SEM.

Assay [3] deals with T1, KCNJ3/KCNJ5WT in 293T cells (Homo sapiens, UniProt P48544+P48549).
T1 construct: #SC118769 (KCNJ3); host or cells: 293T
T1 sequence (P48544 1-419): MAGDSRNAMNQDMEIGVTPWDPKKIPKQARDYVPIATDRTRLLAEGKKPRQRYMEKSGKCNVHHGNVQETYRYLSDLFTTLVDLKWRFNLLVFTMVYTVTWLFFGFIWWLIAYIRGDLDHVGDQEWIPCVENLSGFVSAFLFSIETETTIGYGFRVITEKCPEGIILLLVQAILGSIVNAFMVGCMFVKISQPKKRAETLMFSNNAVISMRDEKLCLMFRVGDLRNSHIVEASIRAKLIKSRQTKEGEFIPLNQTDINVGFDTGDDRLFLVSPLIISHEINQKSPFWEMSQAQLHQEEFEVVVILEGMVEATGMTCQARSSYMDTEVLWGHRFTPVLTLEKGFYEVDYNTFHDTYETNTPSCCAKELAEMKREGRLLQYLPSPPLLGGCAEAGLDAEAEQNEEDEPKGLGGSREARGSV
T1 sequence (P48549 1-501): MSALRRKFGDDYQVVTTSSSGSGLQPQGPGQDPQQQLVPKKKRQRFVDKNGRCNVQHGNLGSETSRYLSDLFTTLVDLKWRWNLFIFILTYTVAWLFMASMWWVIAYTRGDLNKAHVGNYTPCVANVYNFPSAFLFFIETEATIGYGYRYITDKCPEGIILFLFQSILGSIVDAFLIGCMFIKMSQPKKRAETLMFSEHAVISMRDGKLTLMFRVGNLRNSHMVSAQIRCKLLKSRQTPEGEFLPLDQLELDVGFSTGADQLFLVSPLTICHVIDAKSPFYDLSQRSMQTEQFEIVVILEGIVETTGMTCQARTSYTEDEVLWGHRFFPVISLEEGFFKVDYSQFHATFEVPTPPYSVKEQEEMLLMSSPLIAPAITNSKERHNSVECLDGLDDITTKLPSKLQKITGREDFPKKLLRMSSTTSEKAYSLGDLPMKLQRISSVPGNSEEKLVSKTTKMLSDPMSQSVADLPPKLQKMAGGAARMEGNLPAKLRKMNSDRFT
The description is as above. The conditions noted are these: 1 mM BaCl2 in extracellular solution; listed as Ba2+. Format: cell-based. On the procedure:
as §1, §2, §3

The target of assay [4] is T2, KCNJ3/KCNJ5G151R in 293T cells (Homo sapiens, UniProt P48544+P48549, G151R).
T2 construct: #SC118769 (KCNJ3); host or cells: 293T
T2 sequence (P48544 1-419 G151R): T1 sequence (P48544 1-419) with G151R
T2 sequence (P48549 1-501): T1 sequence (P48549 1-501)
The assay is described as above. The conditions noted are these: 1 mM BaCl2 in extracellular solution. The assay is classed as cell-based. The protocol:
as §1, §2, §3

The target in assay [5] is T3, KCNJ5 WT homotetramers in 293T cells (Homo sapiens, UniProt P48544).
T3 construct: host or cells: 293T
T3 sequence (P48544 1-419): T1 sequence (P48544 1-419)
The assay can be described thus: Whole-cell patch clamp of KCNJ5 homotetramers, Ba2+ block. The assay is classed as cell-based. As to conditions: 1 mM BaCl2 in extracellular fluid, symmetric high K+ solutions. On the procedure: Because of low current amplitude of homotetrameric channels, currents were measured under symmetrical high Na+ or high K+ conditions, which increases current amplitude (Owen et al., 1999, Exp Physiol 84:471-488; Andreoli, et al., Eds., Molecular Biology of Membrane Transport Disorders (Plenum Press, New York, ed. 2, 1996), chap. 5) (FIGS. 13A-13D); reversal potentials and permeability ratios were determined using physiological solutions (FIGS. 13E, 13F). (FIG. 13A) Representative whole-cell recordings showing K+ and Na+ currents in 293T cells transfected with KCNJ5, KCNJ5G151R, KCNJ5L168R, and KCNJ5T158A. […] (FIGS. 13B, 13C) Current-voltage relationships from cells expressing the indicated constructs with symmetric high K+ or high Na+ solutions as in FIG. 13A. […] Relative permeabilities of K+:Na+ were determined in physiologic solutions as described in FIG. 13E. (FIG. 13E) Reversal potential of 293T cells transfected with WT or mutant KCNJ5 using physiological solutions. […] The reversal potential for the homotetramers was determined by a ramp protocol ranging from −100 to +100 mV after forming a high resistance seal. […]
To analyze homomeric wild-type or mutant KCNJ5 currents, 1 μg of cDNA was transfected. […] For each construct, currents were measured in two conditions. […] The reversal potential was determined using a ramp protocol ranging from −100 to +100 mV after forming a high resistance seal. […]
(Patch clamp records ionic current or voltage across a cell membrane.)

Where a chain is given by its changes, count along the chain named. “Also recorded” adds a separate entry of the source.

Sequence of KCNJ3/KCNJ5WT cotransfected with the dopamine D2 receptor in 293T cells (P14416 whole entry): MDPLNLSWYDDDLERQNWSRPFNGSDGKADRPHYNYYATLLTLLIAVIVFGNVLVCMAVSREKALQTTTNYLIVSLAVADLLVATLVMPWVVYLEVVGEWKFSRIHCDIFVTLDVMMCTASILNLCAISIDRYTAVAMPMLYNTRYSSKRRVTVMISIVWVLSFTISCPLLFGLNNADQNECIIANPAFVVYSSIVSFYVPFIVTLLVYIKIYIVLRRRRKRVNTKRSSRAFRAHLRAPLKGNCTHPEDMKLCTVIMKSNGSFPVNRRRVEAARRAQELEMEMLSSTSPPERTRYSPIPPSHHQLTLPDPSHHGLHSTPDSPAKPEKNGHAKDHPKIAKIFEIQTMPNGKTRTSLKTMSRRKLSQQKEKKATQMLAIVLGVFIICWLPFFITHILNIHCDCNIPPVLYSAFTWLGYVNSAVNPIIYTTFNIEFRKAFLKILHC

`Cl.NCCc1ccc(O)c(O)c1` [Dopamine, dopamine hydrochloride] yielded an increase of current in assay [1] of about 50%.

In the case of `[Ba+2].[Cl-].[Cl-]` [BaCl2], the “inhibition of current by Ba2+” value in assay [2] is recorded as “variable inhibition”; in assay [3], “inhibited; also recorded: inhibits the WT channel”; in assay [4], “loss of inhibition”. In addition, the “inhibition of channel activity” value in assay [5] is reported as “inhibited WT channel activity”.
